Laboratory results: patent US20240228489A1, “POSITIVE ALLOSTERIC MODULATORS OF THE MUSCARINIC ACETYLCHOLINE RECEPTOR M1” (Vanderbilt University, priority 2021, published 2024)

Experiments:
human mAChR M1 [1] = biological target: T1, human mAChR M1 (Homo sapiens, UniProt P11229); test: mAChR M1 cell-based functional assay (calcium mobilization), agonist mode: compound alone, Emax relative to acetylcholine maximum; details: for Agonist Activity Human M1 EC50 / EC50: human mAChR M1; for Emax: relative to the maximum for acetylcholine
T1 sequence (P11229 1-460): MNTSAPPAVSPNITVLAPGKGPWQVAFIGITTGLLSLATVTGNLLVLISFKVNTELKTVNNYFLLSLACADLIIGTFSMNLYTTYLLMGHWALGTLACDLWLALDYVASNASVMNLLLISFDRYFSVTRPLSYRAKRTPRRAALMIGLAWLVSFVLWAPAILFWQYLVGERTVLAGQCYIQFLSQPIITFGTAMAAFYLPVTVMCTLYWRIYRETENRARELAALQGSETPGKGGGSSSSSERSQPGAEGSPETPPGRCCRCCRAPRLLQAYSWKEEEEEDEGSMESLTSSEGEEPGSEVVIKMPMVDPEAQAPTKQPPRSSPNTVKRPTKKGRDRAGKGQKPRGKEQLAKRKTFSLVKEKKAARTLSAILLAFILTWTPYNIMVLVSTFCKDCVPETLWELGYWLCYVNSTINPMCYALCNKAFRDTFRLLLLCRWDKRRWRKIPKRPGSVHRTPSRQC
Summary of the method: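 Agonist activity is the concentration-dependent rise in intracellular calcium (Fluo-4, 1 Hz read) after compound addition, measured before any acetylcholine was added, in stable hM1 CHO-K1 cells. Curves were 11-point, 1:3 dilutions fitted by four-parameter logistic. Emax is given as a fraction of maximal acetylcholine response.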

human mAChR M1 [2] = biological target: T1, human mAChR M1; test: mAChR M1 cell-based functional assay (calcium mobilization), PAM mode: increase in the EC20 acetylcholine response
Summary of the method: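 PAM readout is the concentration-dependent rise in the EC20 acetylcholine calcium signal, fitted to a four-parameter logistic (EC50, Emax). Compounds were preincubated from 4 s before ACh at 144 s (EC20) and 230 s (EC80). hM1-expressing CHO-K1 cells loaded with Fluo-4, FDSS ratio read.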

| Agonist Activity Human M1 EC50 (human mAChR M1 [1]) | Emax (human mAChR M1 [1]) | EC50 (human mAChR M1 [2]) | Emax (human mAChR M1 [2]) | EC50 (human mAChR M1 [1]) | SMILES |
| --- | --- | --- | --- | --- | --- |
| Inactive | 2% | 2400 nM | 54% | – | [2H]C1([2H])c2ncccc2C(=O)N1Cc1c(F)cc(-c2cn(C)c(=O)c3c2cnn3C([2H])([2H])[2H])cc1F [Compound 92, 4-(3,5-difluoro-4-((5-oxo-5,7-dihydro-6H-pyrrolo[3,4-b]pyridin-6-yl-7,7-d2)methyl)phenyl)-6-methyl-1-(methyl-d3)-1,6-dihydro-7H-pyrazolo[3,4-c]pyridin-7-one] |
| Inactive | 3% | 789 nM | 77% | – | [2H]C1([2H])c2ncccc2C(=O)N1Cc1c(F)cc(-c2ccc(C3CC3)c3nn(C)cc23)cc1F [Compound 122, 6-(4-(7-cyclopropyl-2-methyl-2H-indazol-4-yl)-2,6-difluorobenzyl)-6,7-dihydro-5H-pyrrolo[3,4-b]pyridin-5-one-7,7-d2] |
| – | 16% | 793 nM | 79% | ≥ 10000 nM | [2H]C1([2H])c2ncccc2C(=O)N1Cc1c(F)cc(-c2cn(C)c(=O)c3nn(C)cc23)cc1F [Compound 79, 4-(3,5-difluoro-4-((5-oxo-5,7-dihydro-6H-pyrrolo[3,4-b]pyridin-6-yl-7,7-d2)methyl)phenyl)-2,6-dimethyl-2,6-dihydro-7H-pyrazolo[3,4-c]pyridin-7-one] |
| Inactive | 3% | > 10000 nM | 44% | – | [2H]C1([2H])c2ncccc2C(=O)N1Cc1ccc(-c2cccc3nncn23)cc1 [Compound 239, 6-(4-([1,2,4]triazolo[4,3-a]pyridin-5-yl)benzyl)-6,7-dihydro-5H-pyrrolo[3,4-b]pyridin-5-one-7,7-d2] |
| – | 13% | 396 nM | 83% | ≥ 10000 nM | [2H]C1([2H])c2ncccc2C(=O)N1Cc1c(C)cc(-c2ccc3nn(C([2H])([2H])[2H])cc3c2)cc1F [Compound 160, 6-(2-fluoro-6-methyl-4-(2-(methyl-d3)-2H-indazol-5-yl)benzyl)-6,7-dihydro-5H-pyrrolo[3,4-b]pyridin-5-one-7,7-d2] |
| Inactive | 2% | 848 nM | 80% | – | [2H]C1([2H])c2ncccc2C(=O)N1Cc1c(F)cc(-c2cccc3nn(C4COC4)cc23)cc1F [Compound 49, 6-(2,6-difluoro-4-(2-(oxetan-3-yl)-2H-indazol-4-yl)benzyl)-6,7-dihydro-5H-pyrrolo[3,4-b]pyridin-5-one-7,7-d2] |
| – | 8% | 173 nM | 89% | > 10000 nM | [2H]C1([2H])c2ncccc2C(=O)N1Cc1c(F)cc(-c2ccc(OC)c3nn(C([2H])([2H])[2H])cc23)cc1F [Compound 51, 6-(2,6-difluoro-4-(7-methoxy-2-(methyl-d3)-2H-indazol-4-yl)benzyl)-6,7-dihydro-5H-pyrrolo[3,4-b]pyridin-5-one-7,7-d2] |
| Inactive | 3% | 2920 nM | 55% | – | [2H]C1([2H])c2ncccc2C(=O)N1Cc1c(F)cc(-c2cnc(OC)c3nn(C)cc23)cc1F [Compound 121, 6-(2,6-difluoro-4-(7-methoxy-2-methyl-2H-pyrazolo[3,4-c]pyridin-4-yl)benzyl)-6,7-dihydro-5H-pyrrolo[3,4-b]pyridin-5-one-7,7-d2] |
| – | 18% | 751 nM | 75% | ≥ 10000 nM | [2H]C1([2H])c2ncccc2C(=O)N1Cc1ccc(-c2ccc(O[C@H]3CCOC3)c3nn(C)cc23)cc1F [Compound 144, (S)-6-(2-fluoro-4-(2-methyl-7-((tetrahydrofuran-3-yl)oxy)-2H-indazol-4-yl)benzyl)-6,7-dihydro-5H-pyrrolo[3,4-b]pyridin-5-one-7,7-d2] |
| – | 26% | 211 nM | 80% | 7520 nM | [2H]C1([2H])c2ncccc2C(=O)N1Cc1c(F)cc(-c2ccc(OCC)c3nn(C)cc23)cc1F [Compound 96, 6-(4-(7-ethoxy-2-methyl-2H-indazol-4-yl)-2,6-difluorobenzyl)-6,7-dihydro-5H-pyrrolo[3,4-b]pyridin-5-one-7,7-d2] |
| Inactive | 6% | 214 nM | 85% | – | [2H]C1([2H])c2ncccc2C(=O)N1Cc1c(F)cc(-c2ccc3nn(C([2H])([2H])[2H])cc3c2)cc1F [Compound 100, 6-(2,6-difluoro-4-(2-(methyl-d3)-2H-indazol-5-yl)benzyl)-6,7-dihydro-5H-pyrrolo[3,4-b]pyridin-5-one-7,7-d2] |
| – | 31% | 164 nM | 83% | 6240 nM | [2H]C1([2H])c2ncccc2C(=O)N1Cc1c(C)cc(-c2ccc(OC)c3nn(C([2H])([2H])[2H])cc23)cc1F [Compound 159, 6-(2-fluoro-4-(7-methoxy-2-(methyl-d3)-2H-indazol-4-yl)-6-methylbenzyl)-6,7-dihydro-5H-pyrrolo[3,4-b]pyridin-5-one-7,7-d2] |
| Inactive | 2% | 256 nM | 85% | – | [2H]C1([2H])c2ncccc2C(=O)N1Cc1c(F)cc(-c2ccc3nn(C)cc3c2)cc1Cl [Compound 167, 6-(2-chloro-6-fluoro-4-(2-methyl-2H-indazol-5-yl)benzyl)-6,7-dihydro-5H-pyrrolo[3,4-b]pyridin-5-one-7,7-d2] |
| – | 25% | 285 nM | 83% | 5800 nM | [2H]C1([2H])c2ncccc2C(=O)N1Cc1c(F)cc(-c2ccc(OC(C)C)c3nn(C([2H])([2H])[2H])cc23)cc1F [Compound 99, 6-(2,6-difluoro-4-(7-isopropoxy-2-(methyl-d3)-2H-indazol-4-yl)benzyl)-6,7-dihydro-5H-pyrrolo[3,4-b]pyridin-5-one-7,7-d2] |
| – | 15% | 768 nM | 83% | ≥ 10000 nM | [2H]C1([2H])c2ncccc2C(=O)N1Cc1c(C)cc(-c2ccc(C(F)(F)F)c3nn(C)cc23)cc1F [Compound 200, 6-(2-fluoro-6-methyl-4-(2-methyl-7-(trifluoromethyl)-2H-indazol-4-yl)benzyl)-6,7-dihydro-5H-pyrrolo[3,4-b]pyridin-5-one-7,7-d2] |
| Inactive | 2% | 2700 nM | 37% | – | [2H]C([2H])([2H])Oc1cc(-c2cc(F)c(CN3C(=O)c4cccnc4C3([2H])[2H])c(F)c2)c2cnn(C([2H])([2H])[2H])c2c1 [Compound 88, 6-(2,6-difluoro-4-(6-(methoxy-d3)-1-(methyl-d3)-1H-indazol-4-yl)benzyl)-6,7-dihydro-5H-pyrrolo[3,4-b]pyridin-5-one-7,7-d2] |
| – | 19% | 139 nM | 76% | 3540 nM | [2H]C([2H])([2H])Oc1ccc(-c2cc(F)c(CN3C(=O)c4cccnc4C3([2H])[2H])c(F)c2)c2cn(C([2H])([2H])[2H])nc12 [Compound 94, 6-(2,6-difluoro-4-(7-(methoxy-d3)-2-(methyl-d3)-2H-indazol-4-yl)benzyl)-6,7-dihydro-5H-pyrrolo[3,4-b]pyridin-5-one-7,7-d2] |
| Inactive | 4% | 475 nM | 81% | – | [2H]C1([2H])c2ncccc2C(=O)N1Cc1c(C)cc(-c2ccc(Cl)c3nn(C)cc23)cc1F [Compound 199, 6-(4-(7-chloro-2-methyl-2H-indazol-4-yl)-2-fluoro-6-methylbenzyl)-6,7-dihydro-5H-pyrrolo[3,4-b]pyridin-5-one-7,7-d2] |
| – | 31% | 900 nM | 56% | 6920 nM | [2H]C1([2H])c2ncccc2C(=O)N1Cc1c(F)cc(-c2cnc3nn(C)cc3c2)cc1F [Compound 3, 6-(2,6-difluoro-4-(2-methyl-2H-pyrazolo[3,4-b]pyridin-5-yl)benzyl)-6,7-dihydro-5H-pyrrolo[3,4-b]pyridin-5-one-7,7-d2] |

| SMILES | Agonist Activity Human M1 EC50 (human mAChR M1 [1]) | Emax (human mAChR M1 [1]) | EC50 (human mAChR M1 [2]) | Emax (human mAChR M1 [2]) | EC50 (human mAChR M1 [1]) |
| --- | --- | --- | --- | --- | --- |
| [2H]C1([2H])c2ncccc2C(=O)N1Cc1c(F)cc(-c2ccc(OCCOC)c3nn(C)cc23)cc1OCC(C)C [Compound 218, 6-(2-fluoro-6-isobutoxy-4-(7-(2-methoxyethoxy)-2-methyl-2H-indazol-4-yl)benzyl)-6,7-dihydro-5H-pyrrolo[3,4-b]pyridin-5-one-7,7-d2] | – | 25% | 516 nM | 79% | 7760 nM |
| [2H]C1([2H])c2ncccc2C(=O)N1Cc1c(F)cc(-c2ccc(OC3CCC3)c3nn(C)cc23)cc1F [Compound 125, 6-(4-(7-cyclobutoxy-2-methyl-2H-indazol-4-yl)-2,6-difluorobenzyl)-6,7-dihydro-5H-pyrrolo[3,4-b]pyridin-5-one-7,7-d2] | – | 14% | 382 nM | 72% | ≥ 10000 nM |
